According to article PMC10996807 (Research Square, 2024):
≈ marks a conversion by molar mass, not a printed value.

Assays:
[1] = test system: B. anthracis; assay: microbe, parasite or virus in culture; format: cell-based; settings: for MIC50 / MIC90: Bacillus anthracis
[2] = test system: B. anthracis Ames NR3838 spores; set-up: species or system New Zealand White rabbits; settings: rabbit, in vivo
[3] = test system: B. anthracis Sterne; format: cell-based, Bacillus anthracis

For O=C(O)c1cn(C2CC2)c2cc(N3CCNCC3)c(F)cc2c1=O [Ciprofloxacin], the “MIC Range” value [1] was 0.06 to 4 µg/mL, the MIC50 [1] was 0.12 µg/mL (≈ 0.362 µM) and the MIC90 [1] was 0.5 µg/mL (≈ 1.51 µM).
In the case of C[C@H]1c2cccc(O)c2C(=O)C2=C(O)[C@]3(O)C(=O)C(C(N)=O)=C(O)[C@@H](N(C)C)[C@@H]3[C@@H](O)[C@@H]21 [Doxycycline], the “MIC Range” value [1] is reported as at most 0.008 to 0.12 µg/mL, the MIC50 [1] is reported as 0.03 µg/mL (≈ 0.0675 µM) and the MIC90 [1] is reported as 0.06 µg/mL (≈ 0.135 µM).
C[C@@H](O)[C@H]1C(=O)N2C(C(=O)O)=C(SCCN=CN)C[C@H]12 [Imipenem] was tested, and the “MIC Range” value [1] was 0.03 to 1 µg/mL, the MIC50 [1] was 0.06 µg/mL (≈ 0.2 µM) and the MIC90 [1] was 0.12 µg/mL (≈ 0.401 µM).
For C[C@H]1COc2c(N3CCN(C)CC3)c(F)cc3c(=O)c(C(=O)O)cn1c23 [Levofloxacin], the histopathology lesions ([2]; 12.5 mg/kg) was “mitigated lesions”, the “efficacious dose in rabbits” value ([2]; iv) was 12.5 mg/kg and the “MIC Range” value [1] was 0.06 to 1 µg/mL. The MIC50 [1] was 0.12 µg/mL (≈ 0.332 µM) and the MIC90 [1] was 0.5 µg/mL (≈ 1.38 µM).
Lys(Bodipy FL)10-teixobactin was tested, and the “effect of washing on preformed supramolecular structures” value [3] was “no apparent effect” and the “formation of supramolecular structures” value [3] was “apparent”.
